Source: patent US20100256109A1, “Azetidines As EP2 Antagonists” (priority 2007, published 2010)

Molecular target: T1, recombinant human EP-2 receptor (Homo sapiens, UniProt P43116)
T1 construct: stably transfected with full length cDNA encoding human Prostaglandin E2; expressed in transfected cells
Assay: In vitro antagonist potency against recombinant human prostaglandin E2 (EP-2) receptor in CHO cells (cAMP)
Type: cell-based
Details: CHO cells expressing recombinant human EP-2 receptor, stimulated with PGE2 5 nM; cAMP readout; Ki from IC50 by Cheng-Prusoff; read-out: EP2 Ki
Description: 1.0 Measurement of In Vitro Antagonist Potency (IC50) of Compounds Against Recombinant Human Prostaglandin E2 Receptor in CHO Cells.
The prostaglandin E2 (EP-2) receptor is Gs coupled and agonism of the receptor by PGE2 results in activation of intracellular adenylate cyclase enzymes that synthesise the second messenger signalling molecule, adenosine 3′,5′-cyclic monophosphate (cAMP). CHO cells expressing the recombinant human EP-2 receptor are stimulated with PGE2 (5 nM) equivalent to approximately […] values to give the maximal cAMP signal. Decreases in cAMP levels following treatment of stimulated recombinant EP-2 cells with potential antagonist compounds were measured and potency (IC50) calculated as follows.
A Chinese hamster ovary (CHO) cell line stably transfected with full length cDNA encoding human Prostaglandin E2 was established using standard molecular biology methods. Test compounds were dissolved in dimethyl sulphoxide (DMSO) at 4 mM. 11 point half log unit increment dilution series of test compound were prepared in DMSO then diluted 1 in 40 in a buffer comprised of phosphate buffered saline (PBS) and 0.05% pluronic F-127 surfactant. Freshly cultured cells at 80-90% confluence were harvested and re-suspended in 90% growth media/10% DMSO. The cells were frozen using a planar freezer and stored in frozen aliquots in cryovials in liquid nitrogen until the day of the experiment. A vial of cells was defrosted in a 37° C. water bath for 2 min, then transferred to 10 ml of Dulbecco's Modified Eagle's Medium (DMEM). The cells were then centrifuged for 5 min at 1000 g and the pellet re-suspended at 1,000,000 cells/ml in DMEM. 5,000 cells (5 ul) were added to 5 ul of the compound dilution series in a 384 well assay plate and pre-incubated for 30 min at 37° C. 5 ul of agonist (15 nM PGE2 in PBS to give 5 nM FAC) was added and plates further incubated for 90 min at 37° C. The relative cAMP concentration in each well was then measured using a β-galactosidase enzyme fragment complementation method purchased in kit form as the Discoverx cAMP II kit from GE Healthcare, UK. […] Sigmoidal curves were fitted to plots of log10 inhibitor concentration vs. percent effect. IC50 estimates were determined as the concentration of test compound giving an effect half way between the bottom and top asymptotes of the sigmoidal dose response curve. Each experiment included an IC50 determination for the literature compound as a standard to track assay consistency and allow fair comparison between values obtained in different experiments. The EC50 of PGE2 is used in combination with the ligand concentration in the assay to determine Ki values for antagonist dose responses using the Cheng-Prusoff equation. Consequently an agonist dose response curve is carried out for each experiment using the same incubation as the antagonist plate.

T1 sequence (P43116 whole entry): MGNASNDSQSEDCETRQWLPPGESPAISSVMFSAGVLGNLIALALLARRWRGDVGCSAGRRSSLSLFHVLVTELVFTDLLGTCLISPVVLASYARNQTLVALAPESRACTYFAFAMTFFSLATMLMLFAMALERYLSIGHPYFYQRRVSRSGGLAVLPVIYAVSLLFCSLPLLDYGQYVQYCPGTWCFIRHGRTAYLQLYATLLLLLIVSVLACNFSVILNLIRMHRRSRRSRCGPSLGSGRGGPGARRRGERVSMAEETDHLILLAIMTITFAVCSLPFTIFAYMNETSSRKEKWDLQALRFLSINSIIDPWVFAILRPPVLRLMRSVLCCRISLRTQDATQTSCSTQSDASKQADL

SMILES | Ki [nM]
O=C(Nc1cccc(Cl)c1Cl)N1CC(Cn2nnc(-c3ccccc3)n2)(C(=O)O)C1 [Example 67, 1-{[(2,3-dichlorophenyl)amino]carbonyl}-3-[(5-phenyl-2H-tetrazol-2-yl)methyl]azetidine-3-carboxylic acid] | 130
COc1cc(OC)cc(C(=O)N2CC(Cn3nnc(-c4ccc(C(F)(F)F)cc4)n3)(C(=O)O)C2)c1 [Example 46, 1-(3,5-Dimethoxybenzoyl)-3-({5-[4-(trifluoromethyl)phenyl]-2H-tetrazol-2-yl}methyl)azetidine-3-carboxylic acid] | 44.9
CCc1ccc(-c2nnn(CC3(C(=O)O)CN(C(=O)c4ccc(F)cc4)C3)n2)cc1 [Example 23] | 1.37
Cc1ccccc1-c1nnn(CC2(C(=O)O)CN(C(=O)c3ccc(F)cc3)C2)n1 [Example 12] | 77.8
O=C(c1ccc(Cl)cc1)N1CC(Cn2nnc(-c3ccc(C(F)(F)F)cc3)n2)(C(=O)O)C1 [Example 5] | 1.64
COc1ccc(C(=O)N2CC(Cn3nnc(-c4ccc(OC)c(OC)c4)n3)(C(=O)O)C2)cc1 [Example 62] | 25.2
O=C(c1ccc(Cl)cc1)N1CC(Cn2nnc(-c3ccc(Cl)c(Cl)c3)n2)(C(=O)O)C1 [Example 9] | 0.864
Cc1cccc(-c2nnn(CC3(C(=O)O)CN(C(=O)c4ccc(F)cc4)C3)n2)c1 [Example 17] | 14.8
O=C(c1ccc(F)cc1)N1CC(Cn2nnc(-c3ccc(F)c(F)c3)n2)(C(=O)O)C1 [Example 41] | 66.8
O=C(c1ccccc1)N1CC(Cn2nnc(-c3ccc(Cl)s3)n2)(C(=O)O)C1 [Example 50] | 61.4
CCOc1ccccc1C(=O)N1CC(Cn2nnc(-c3cccc(F)c3)n2)(C(=O)O)C1 [Example 52] | 446
O=C(c1ccc(Cl)cc1)N1CC(Cn2nnc(-c3c(F)cccc3F)n2)(C(=O)O)C1 [Example 61] | 7.47
Cc1ccc(-c2nnn(CC3(C(=O)O)CN(C(=O)c4ccc(Cl)cc4)C3)n2)cc1 [Example 4] | 1.45
O=C(c1ccc(F)cc1)N1CC(Cn2nnc(-c3cccc(Cl)c3Cl)n2)(C(=O)O)C1 [Example 39] | 39.9
Cc1ccc(-c2nnn(CC3(C(=O)O)CN(C(=O)c4ccc(Cl)cc4)C3)n2)cc1Cl [Example 8] | 0.423
O=C(c1ccc(F)cc1)N1CC(Cn2nnc(-c3ccc(Cl)cc3)n2)(C(=O)O)C1 [Example 25] | 20
COc1cccc(C(=O)N2CC(Cn3nnc(-c4ccc(OC)c(OC)c4)n3)(C(=O)O)C2)c1 [Example 58] | 76.3
O=C(c1c(F)cccc1F)N1CC(Cn2nnc(Cc3ccc(C(F)(F)F)cc3)n2)(C(=O)O)C1 [Example 63] | 1960
COc1ccccc1-c1nnn(CC2(C(=O)O)CN(C(=O)c3ccc(F)cc3)C2)n1 [Example 16] | 442

SMILES | Ki [nM]
CCOc1ccccc1C(=O)N1CC(Cn2nnc(-c3ccc(C(F)(F)F)cc3)n2)(C(=O)O)C1 [Example 53] | 32.5
O=C(c1ccc(F)cc1)N1CC(Cn2nnc(-c3cc(C(F)(F)F)cc(C(F)(F)F)c3)n2)(C(=O)O)C1 [Example 44] | 133
COc1ccc(-c2nnn(CC3(C(=O)O)CN(C(=O)c4ccccc4)C3)n2)cc1OC [Example 49] | 41.9
O=C(c1ccc(Cl)cc1)N1CC(Cn2nnc(Cc3ccc(C(F)(F)F)cc3)n2)(C(=O)O)C1 [Example 60] | 645
COc1cc(OC)cc(C(=O)N2CC(Cn3nnc(-c4ccc(OC)c(OC)c4)n3)(C(=O)O)C2)c1 [Example 66] | 222
CCOc1ccccc1C(=O)N1CC(Cn2nnc(Cc3c(F)cccc3Cl)n2)(C(=O)O)C1 [Example 54] | 783
O=C(c1ccc(Cl)cc1)N1CC(Cn2nnc(-c3cccc(Cl)c3)n2)(C(=O)O)C1 [Example 2] | 3.51
O=C(c1ccccc1)N1CC(Cn2nnc(-c3c(F)cccc3F)n2)(C(=O)O)C1 [Example 48] | 325
COc1ccc(-c2nnn(CC3(C(=O)O)CN(C(=O)c4cccc(F)c4)C3)n2)cc1OC [Example 55] | 453
CCC(=O)Nc1ccc(-c2nnn(CC3(C(=O)O)CN(C(=O)c4ccc(Cl)cc4)C3)n2)cc1 [Example 7] | 0.816
O=C(c1ccc(Cl)cc1)N1CC(Cn2nnc(-c3cc(Cl)cc(Cl)c3)n2)(C(=O)O)C1 [Example 10] | 1.02
COc1cccc(-c2nnn(CC3(C(=O)O)CN(C(=O)c4ccc(F)cc4)C3)n2)c1 [Example 20] | 11.6
O=C(c1ccc(F)cc1)N1CC(Cn2nnc(-c3cc(F)cc(Cl)c3)n2)(C(=O)O)C1 [Example 43] | 13.7
O=C(c1ccc(F)cc1)N1CC(Cn2nnc(-c3c(F)cccc3F)n2)(C(=O)O)C1 [Example 42] | 262
O=C(c1ccc(F)cc1)N1CC(Cn2nnc(-c3ccc(F)cc3)n2)(C(=O)O)C1 [Example 26] | 74.8
O=C(c1ccc(F)cc1)N1CC(Cn2nnc(-c3ccc(OC(F)F)cc3)n2)(C(=O)O)C1 [Example 30] | 14.7
O=C(c1ccc(F)cc1)N1CC(Cn2nnc(-c3ccccc3F)n2)(C(=O)O)C1 [Example 13] | 87.3
O=C(c1ccc(Cl)cc1)N1CC(Cn2nnc(-c3cccc(F)c3)n2)(C(=O)O)C1 [Example 3] | 11.1
O=C(c1ccc(Cl)cc1)N1CC(Cn2nnc(-c3ccc(Cl)cc3)n2)(C(=O)O)C1 [Example 6] | 2.42

SMILES | Ki [nM]
COc1cc(OC)cc(C(=O)N2CC(Cn3nnc(-c4c(F)cccc4F)n3)(C(=O)O)C2)c1 [Example 65] | 230
O=C(c1ccc(F)cc1)N1CC(Cn2nnc(-c3ccc(Cl)cc3Cl)n2)(C(=O)O)C1 [Example 38] | 27
COc1cccc(C(=O)N2CC(Cn3nnc(-c4ccc(C(C)(C)C)cc4)n3)(C(=O)O)C2)c1 [Example 56] | 176
COc1cccc(NC(=O)N2CC(Cn3nnc(-c4cccc(F)c4)n3)(C(=O)O)C2)c1 [Example 68, 3-{[5-(3-fluorophenyl)-2H-tetrazol-2-yl]methyl}-1-{[(3-methoxyphenyl)amino]carbonyl}azetidine-3-carboxylic acid] | 303
O=C(c1ccccc1)N1CC(Cn2nnc(-c3cccc(F)c3)n2)(C(=O)O)C1 [Example 47] | 152
CCOc1ccccc1C(=O)N1CC(Cn2nnc(-c3ccccc3)n2)(C(=O)O)C1 [Example 51] | 538
CCC(=O)Nc1ccc(-c2nnn(CC3(C(=O)O)CN(C(=O)c4ccc(F)cc4)C3)n2)cc1 [Example 32] | 10.3
O=C(c1ccc(F)cc1)N1CC(Cn2nnc(-c3ccccc3Cl)n2)(C(=O)O)C1 [Example 14] | 220
Cc1ccc(C(=O)N2CC(Cn3nnc(-c4c(F)cccc4F)n3)(C(=O)O)C2)cc1 [Example 59] | 57.9
O=C(c1ccc(F)cc1)N1CC(Cn2nnc(-c3ccccc3C(F)(F)F)n2)(C(=O)O)C1 [Example 15] | 733
O=C(Nc1cccc(Cl)c1)N1CC(Cn2nnc(-c3cccc(F)c3)n2)(C(=O)O)C1 [Example 70] | 386
COc1cccc(C(=O)N2CC(Cn3nnc(Cc4c(F)cccc4Cl)n3)(C(=O)O)C2)c1 [Example 57] | 959
O=C(c1ccccc1)N1CC(Cn2nnc(-c3ccccc3)n2)(C(=O)O)C1 [Example 1, 1-Benzoyl-3-[(5-phenyl-2H-tetrazol-2-yl)methyl]azetidine-3-carboxylic acid] | 225
O=C(c1ccc(F)cc1)N1CC(Cn2nnc(-c3cccc(Oc4ccccc4)c3)n2)(C(=O)O)C1 [Example 21] | 141
COc1ccc(-c2nnn(CC3(C(=O)O)CN(C(=O)c4c(F)cccc4F)C3)n2)cc1OC [Example 64] | 230
O=C(Nc1cccc(F)c1)N1CC(Cn2nnc(-c3ccc(Cl)s3)n2)(C(=O)O)C1 [Example 71] | 519
COc1ccc(-c2nnn(CC3(C(=O)O)CN(C(=O)c4ccc(F)cc4)C3)n2)cc1 [Example 28] | 10.8
CCc1ccccc1NC(=O)N1CC(Cn2nnc(-c3cccc(F)c3)n2)(C(=O)O)C1 [Example 69] | 440
